{"source": "patent US9867833B2", "about": "“Serine/threonine kinase inhibitors” (GENENTECH, INC., priority 2013, dated 2018)", "note": "pIC50: −log10 of the molar value."}
{"molecular_target": "human ERK-2 (Mitogen Activated Kinase 1) (Homo sapiens (Human), UniProt P28482)", "sequence (P28482 8-360)": "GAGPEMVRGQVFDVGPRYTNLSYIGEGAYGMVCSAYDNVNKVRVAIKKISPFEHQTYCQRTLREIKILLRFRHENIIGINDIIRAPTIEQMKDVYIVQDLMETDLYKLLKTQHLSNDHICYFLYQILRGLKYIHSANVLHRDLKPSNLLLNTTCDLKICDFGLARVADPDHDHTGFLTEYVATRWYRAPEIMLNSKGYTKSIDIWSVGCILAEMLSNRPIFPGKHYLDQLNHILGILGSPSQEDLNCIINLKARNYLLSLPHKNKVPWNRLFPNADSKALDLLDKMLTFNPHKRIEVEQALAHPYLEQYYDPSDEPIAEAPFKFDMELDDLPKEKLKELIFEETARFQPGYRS", "assay": "ERK-2 Enzymatic Assay", "assay_type": "biochemical", "details": "human ERK-2 enzyme 5 nM, 25 μM ATP, S/T17 peptide substrate; isomer = configuration of CR2R3", "outline": "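Recombinant human ERK-2 (aa 8-360, N-terminal 6-His, E. coli) with 3-fold serially diluted compound. Per-well rates from linear fits converted to percent of control; IC50 by four-parameter fit.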"}
{"smiles": "CN1C(=O)C[C@H](Cc2cccc(Cl)c2)c2nnc3cc(-c4ccnc(Nc5ccnn5C)n4)cc1n23", "note": "[Compound I-80, (S)-9-(3-chlorobenzyl)-6-methyl-4-(2-((1-methyl-1H-pyrazol-5-yl)amino)pyrimidin-4-yl)-8,9-dihydro-1,2,2a^1,6-tetraazabenzo[cd]azulen-7(6H)-one]", "pIC50": "> 10.70"}
{"smiles": "Cn1nccc1Nc1nccc(-c2cc3n4c(nnc4c2)[C@@H](Oc2ccc(F)cc2)CCO3)n1", "note": "[(S) I-108, 4-(9-(4-fluorophenoxy)-8,9-dihydro-7H-6-oxa-1,2,2a^1-triazabenzo[cd]azulen-4-yl)-N-(1-methyl-1H-pyrazol-5-yl)pyrimidin-2-amine]", "pIC50": "> 10.70"}
{"smiles": "COc1ccc(C[C@@H]2CC(=O)N(C)c3cc(-c4ccnc(Nc5ccnn5C)n4)cc4nnc2n34)cc1", "note": "[(R) I-62, 9-(4-methoxybenzyl)-6-methyl-4-(2-((1-methyl-1H-pyrazol-5-yl)amino)pyrimidin-4-yl)-8,9-dihydro-1,2,2a^1,6-tetraazabenzo[cd]azulen-7(6H)-one]", "pIC50": "> 10.70"}
{"smiles": "CCCC1COc2cc(-c3ccnc(Nc4ccnn4C)n3)cc3nnc1n23", "note": "(single isomer, unassigned) [(S) I-101, N-(1-methyl-1H-pyrazol-5-yl)-4-(3-propyl-3,4-dihydro-5-oxa-1,2,2a^1-triazaacenaphthylen-7-yl)pyrimidin-2-amine]", "pIC50": 7.71}
{"smiles": "Cn1nccc1Nc1nccc(-c2cc3n4c(nnc4c2)[C@@H](Cc2ccc(Cl)cc2)CN3)n1", "note": "[(S) I-5, 4-(3-(4-chlorobenzyl)-4,5-dihydro-3H-1,2,2a^1,5-tetraazaacenaphthylen-7-yl)-N-(1-methyl-1H-pyrazol-5-yl)pyrimidin-2-amine]", "pIC50": "> 10.70"}
{"smiles": "Cn1nccc1Nc1cc(-c2cc3n4c(nnc4c2)C(Cc2ccc(Cl)cc2)CO3)ccn1", "note": "(single isomer, unassigned) [(R) I-55, 4-(3-(4-chlorobenzyl)-3,4-dihydro-5-oxa-1,2,2a^1-triazaacenaphthylen-7-yl)-N-(1-methyl-1H-pyrazol-5-yl)pyridin-2-amine]", "pIC50": "> 10.70"}
{"smiles": "Cn1nccc1Nc1cc(-c2cc3n4c(nnc4c2)[C@@H](Cc2ccccc2Cl)CCO3)ccn1", "note": "[(S) I-30, 4-(9-(2-chlorobenzyl)-8,9-dihydro-7H-6-oxa-1,2,2a^1-triazabenzo[cd]azulen-4-yl)-N-(1-methyl-1H-pyrazol-5-yl)pyridin-2-amine]", "pIC50": "> 10.70"}
{"smiles": "Cn1nccc1Nc1cc(-c2cc3n4c(nnc4c2)[C@@H](c2ccccc2)CN3)ccn1", "note": "(single isomer, unassigned) [(S) I-4, N-(1-methyl-1H-pyrazol-5-yl)-4-(3-phenyl-4,5-dihydro-3H-1,2,2a^1,5-tetraazaacenaphthylen-7-yl)pyridin-2-amine]", "pIC50": "> 10.70"}
{"smiles": "Cn1nccc1Nc1nccc(-c2cc3n4c(nnc4c2)[C@H](Cc2cccc(Cl)c2)CO3)n1", "note": "[(S) I-88, 4-(3-(3-chlorobenzyl)-3,4-dihydro-5-oxa-1,2,2a^1-triazaacenaphthylen-7-yl)-N-(1-methyl-1H-pyrazol-5-yl)pyrimidin-2-amine]", "pIC50": 8.20}
{"smiles": "CN1C(=O)N(Cc2cccc(Cl)c2)c2nnc3cc(-c4ccnc(Nc5ccnn5C)n4)cc1n23", "note": "[Compound I-100, 3-(3-chlorobenzyl)-5-methyl-7-(2-((1-methyl-1H-pyrazol-5-yl)amino)pyrimidin-4-yl)-3H-1,2,2a^1,3,5-pentaazaacenaphthylen-4(5H)-one]", "pIC50": "> 10.70"}
{"smiles": "CN1C(=O)N[C@H](Cc2cccc(F)c2)c2nnc3cc(-c4ccnc(Nc5ccnn5C)n4)cc1n23", "note": "[Compound I-39, (R)-9-(3-fluorobenzyl)-6-methyl-4-(2-((1-methyl-1H-pyrazol-5-yl)amino)pyrimidin-4-yl)-8,9-dihydro-1,2,2a^1,6,8-pentaazabenzo[cd]azulen-7(6H)-one]", "pIC50": 9.67}
{"smiles": "Cn1nccc1Nc1cc(-c2cc3n4c(nnc4c2)[C@@H](Cc2ccccc2)CO3)ccn1", "note": "[(R) I-38, 4-(3-benzyl-3,4-dihydro-5-oxa-1,2,2a^1-triazaacenaphthylen-7-yl)-N-(1-methyl-1H-pyrazol-5-yl)pyridin-2-amine]", "pIC50": 10.70}
{"smiles": "CN1C(=O)N[C@H](CC2CC2)c2nnc3cc(-c4ccnc(Nc5ccnn5C)n4)cc1n23", "note": "[Compound I-51, (R)-9-(cyclopropylmethyl)-6-methyl-4-(2-((1-methyl-1H-pyrazol-5-yl)amino)pyrimidin-4-yl)-8,9-dihydro-1,2,2a^1,6,8-pentaazabenzo[cd]azulen-7(6H)-one]", "pIC50": 8.63}
{"smiles": "CCC(C)CC1COc2cc(-c3ccnc(Nc4ccnn4C)n3)cc3nnc1n23", "note": "(single isomer, unassigned) [(R) I-52, N-(1-methyl-1H-pyrazol-5-yl)-4-(3-(2-methylbutyl)-3,4-dihydro-5-oxa-1,2,2a^1-triazaacenaphthylen-7-yl)pyrimidin-2-amine]", "pIC50": "> 10.70"}
{"smiles": "CC(C)[C@H]1CNc2cc(-c3ccnc(Nc4ccnn4C)n3)cc3nnc1n23", "note": "[Compound I-3, S-4-(3-isopropyl-4,5-dihydro-3H-1,2,2a^1,5-tetraazaacenaphthylen-7-yl)-N-(1-methyl-1H-pyrazol-5-yl)pyrimidin-2-amine]", "pIC50": 10.41}
{"smiles": "CN1C(=O)C[C@H](C2CC2)c2nnc3cc(-c4ccnc(Nc5ccnn5C)n4)cc1n23", "note": "[(R) I-65, 9-cyclopropyl-6-methyl-4-(2-((1-methyl-1H-pyrazol-5-yl)amino)pyrimidin-4-yl)-8,9-dihydro-1,2,2a^1,6-tetraazabenzo[cd]azulen-7(6H)-one]", "pIC50": 9.18}
{"smiles": "Cn1nccc1Nc1nccc(-c2cc3n4c(nnc4c2)[C@@H](Cc2ccccc2)CN3)n1", "note": "[(S) I-2, (S)-4-(3-benzyl-4,5-dihydro-3H-1,2,2a^1,5-tetraazaacenaphthylen-7-yl)-N-(1-methyl-1H-pyrazol-5-yl)pyrimidin-2-amine]", "pIC50": 10.70}
{"smiles": "Cn1nccc1Nc1nccc(-c2cc3n4c(nnc4c2)[C@H](Cc2ccc(F)cc2)CCO3)n1", "note": "[(R) I-58, 4-(9-(4-fluorobenzyl)-8,9-dihydro-7H-6-oxa-1,2,2a^1-triazabenzo[cd]azulen-4-yl)-N-(1-methyl-1H-pyrazol-5-yl)pyrimidin-2-amine]", "pIC50": "> 10.70"}
{"smiles": "Cn1nccc1Nc1nccc(-c2cc3n4c(nnc4c2)[C@@H](Cc2ccc(F)c(Cl)c2)CO3)n1", "note": "[(R) I-82, 4-(3-(3-chloro-4-fluorobenzyl)-3,4-dihydro-5-oxa-1,2,2a^1-triazaacenaphthylen-7-yl)-N-(1-methyl-1H-pyrazol-5-yl)pyrimidin-2-amine]", "pIC50": 9.22}
{"smiles": "CC(C)[C@H]1CC(=O)N(C)c2cc(-c3ccnc(Nc4ccnn4C)c3)cc3nnc1n23", "note": "[(R) I-87, 9-isopropyl-6-methyl-4-(2-((1-methyl-1H-pyrazol-5-yl)amino)pyridin-4-yl)-8,9-dihydro-1,2,2a^1,6-tetraazabenzo[cd]azulen-7(6H)-one]", "pIC50": 8.16}
{"smiles": "CN1C(=O)C[C@H](Cc2ccc(Cl)cn2)c2nnc3cc(-c4ccnc(Nc5ccnn5C)n4)cc1n23", "note": "[(S) I-84, 9-((5-chloropyridin-2-yl)methyl)-6-methyl-4-(2-((1-methyl-1H-pyrazol-5-yl)amino)pyrimidin-4-yl)-8,9-dihydro-1,2,2a^1,6-tetraazabenzo[cd]azulen-7(6H)-one]", "pIC50": 7.49}
{"smiles": "Clc1cnn(C[C@@H]2CCOc3cc(-c4ccnc(NC5CCOCC5)n4)cc4nnc2n34)c1", "note": "[(S) I-110, 4-(9-((4-chloro-1H-pyrazol-1-yl)methyl)-8,9-dihydro-7H-6-oxa-1,2,2a^1-triazabenzo[cd]azulen-4-yl)-N-(tetrahydro-2H-pyran-4-yl)pyrimidin-2-amine]", "pIC50": 9.85}
{"smiles": "Cn1nccc1Nc1cc(-c2cc3n4c(nnc4c2)C(Cc2ccccc2Cl)CCO3)ccn1", "note": "(single isomer, unassigned) [(S) I-60, 4-(9-(2-chlorobenzyl)-8,9-dihydro-7H-6-oxa-1,2,2a^1-triazabenzo[cd]azulen-4-yl)-N-(1-methyl-1H-pyrazol-5-yl)pyridin-2-amine]", "pIC50": "> 10.70"}
{"smiles": "Cn1nccc1Nc1nccc(-c2cc3n4c(nnc4c2)[C@H](CCC(F)(F)F)CCO3)n1", "note": "[(R) I-102, N-(1-methyl-1H-pyrazol-5-yl)-4-(9-(3,3,3-trifluoropropyl)-8,9-dihydro-7H-6-oxa-1,2,2a^1-triazabenzo[cd]azulen-4-yl)pyrimidin-2-amine]", "pIC50": 8.77}
{"smiles": "COc1ccc(C[C@H]2NC(=O)N(C)c3cc(-c4ccnc(Nc5ccnn5C)c4)cc4nnc2n34)cc1", "note": "[Compound I-26, (R)-9-(4-methoxybenzyl)-6-methyl-4-(2-((1-methyl-1H-pyrazol-5-yl)amino)pyridin-4-yl)-8,9-dihydro-1,2,2a^1,6,8-pentaazabenzo[cd]azulen-7(6H)-one]", "pIC50": 9.41}
{"smiles": "CCC[C@H]1CCOc2cc(-c3ccnc(Nc4ccnn4C)n3)cc3nnc1n23", "note": "[(S) I-104, N-(1-methyl-1H-pyrazol-5-yl)-4-(9-propyl-8,9-dihydro-7H-6-oxa-1,2,2a^1-triazabenzo[cd]azulen-4-yl)pyrimidin-2-amine]", "pIC50": "> 10.70"}
{"smiles": "CN1C(=O)C[C@H](CC(F)(F)F)c2nnc3cc(-c4ccnc(Nc5ccnn5C)n4)cc1n23", "note": "[(R) I-71, 6-methyl-4-(2-((1-methyl-1H-pyrazol-5-yl)amino)pyrimidin-4-yl)-9-(2,2,2-trifluoroethyl)-8,9-dihydro-1,2,2a^1,6-tetraazabenzo[cd]azulen-7(6H)-one]", "pIC50": 9.18}
{"smiles": "Cn1nccc1Nc1cc(-c2cc3n4c(nnc4c2)[C@@H](Cn2cc(C(F)(F)F)cn2)CCO3)ccn1", "note": "[(R) I-89, N-(1-methyl-1H-pyrazol-5-yl)-4-(9-((4-(trifluoromethyl)-1H-pyrazol-1-yl)methyl)-8,9-dihydro-7H-6-oxa-1,2,2a^1-triazabenzo[cd]azulen-4-yl)pyridin-2-amine]", "pIC50": "> 10.70"}
{"smiles": "Cn1nccc1Nc1nccc(-c2cc3n4c(nnc4c2)[C@H](Oc2ccc(F)cc2)CCO3)n1", "note": "[(R) I-66, 4-(9-(4-fluorophenoxy)-8,9-dihydro-7H-6-oxa-1,2,2a^1-triazabenzo[cd]azulen-4-yl)-N-(1-methyl-1H-pyrazol-5-yl)pyrimidin-2-amine]", "pIC50": 8.53}
{"smiles": "Cn1nccc1Nc1nccc(-c2cc3n4c(nnc4c2)[C@H](Cc2ccc(Cl)cc2)CN3)n1", "note": "[(R) I-5, 4-(3-(4-chlorobenzyl)-4,5-dihydro-3H-1,2,2a^1,5-tetraazaacenaphthylen-7-yl)-N-(1-methyl-1H-pyrazol-5-yl)pyrimidin-2-amine]", "pIC50": 9.39}
